According to article PMC11574045, “A cofactor-induced repressive type of transcription factor condensation can be induced by synthetic peptides to suppress tumorigenesis” (The EMBO Journal, 2024):
“And” between values parts separate entries of the source, which are not always exact repeats. Identical values can stand only once.

Legend:
CTGF mRNA = experiment: RT-PCR of TEAD4 target genes; type: cell-based
Experimental: For RT-PCR, total RNA was isolated from cells using RNA Isolator Total RNA Extraction Reagent (Vazyme) according to the manufacturer’s instructions. The isolated RNA was reverse transcribed into cDNA using HiScpt II (Vazyme). Quantitative RT-PCR was performed using a CFX96^TM Real-Time system (Bio-Rad) and SYBR Green PCR master mix (Yeasen). The fold change in the gene expression was calculated using the comparative Ct method, and three replicates were tested for each cDNA sample. ACTB was used as an internal reference. Transcript copies of TEAD4 were determined by generating standard curves using plasmid DNA (TEAD4). Each experiment was repeated at least three times. The sequences of the primers are listed in Appendix Table S1.

[1] = tested on: MYC / CYR61 promoter-enhancer interactions in HEK293FT cells; experiment: Chromatin conformation capture (3C) assay; type: cell-based; settings: VGLL4-overexpressing HEK293FT cells + 1,6-Hex; three biological replicates
Experimental: The 3C assay was performed following a protocol described previously ([…] et al, [2007]). Briefly, cells were incubated with 0.05% trypsin for 10 min before detaching. Collected cells were cross-linked with 2% formaldehyde for 10 min, followed by treatment with 0.125 M glycine for 5 min to quench the cross-linking reaction. Cells were then pelleted and incubated with a lysis buffer (10 mM Tris-HCl pH 7.5, 10 mM NaCl, 5 mM MgCl2 and 0.1 mM EGTA) at 4 °C for 15 min. Resulting pelleted nuclei were digested with Hind-III restriction enzyme (NEB) at 37 °C overnight and subsequently ligated with T4 DNA ligase (NEB) at 16 °C for 4 h. Thereafter, the samples were incubated at 65 °C overnight to de-crosslink the protein-DNA complexes and were subjected to phenol-chloroform extraction and ethanol precipitation to obtain the 3C templates. Primers flanking the Hind-III restriction sites located close to TEAD4-targeted gene CYR61 (Xie et al, [2019]) or MYC (Zanconato et al, [2015]) promoter (anchor primers) and enhancers were used to quantitively measure the promoter-enhancer interactions. The primers used are listed in Appendix Table S1.

[2] = tested on: CTGF promoter occupancy in HEK293FT cells; experiment: ChIP-qPCR; type: cell-based; settings: VGLL4-overexpressing HEK293FT cells + 1,6-Hex; three biological replicates
Experimental: ChIP was carried out following a procedure previously described (An et al, [2018]). Briefly, cells were first cross-linked with freshly prepared formaldehyde (final concentration 1.42%) for 15 min, followed by addition of glycine (125 mM) for 5 min at room temperature. After a two-round wash with cold PBS, cells were scraped and collected by centrifuge. Resulting pelleted cells were resuspended in 400 μl of ChIP lysis buffer (50 mM HEPES/KOH, pH 7.5; 140 mM NaCl; 1 mM EDTA; 1% Triton X-100; 0.1% Na-deoxycholate and protease inhibitors) and subjected to sonication with Bioruptor at high power for 15 cycles (30 s on and 30 s off for each cycle) to shear the chromatin. Samples were then further diluted twice with lysis buffer and the diluted samples were centrifuged to clear the supernatants. Meanwhile, eighty microliters of each of the supernatants were directly processed to extract total DNA as whole-cell input. […] Prewashed protein A/G beads (L2118; Santa Cuz) were added into these samples, which were then incubated for another 3 h. These incubated samples were washed five times with ChIP lysis buffer and then mixed with 100 μl of 10% chelex (1421253; Bio-Rad), followed by being boiled for 10 min and centrifuged at 4 °C for 1 min. Resulting supernatants were transferred to new tubes. Subsequently, another 120 μl of MilliQ water were added to each fraction of beads pellet, and the resulting mixtures were vortexed for 10 s, and then centrifuged again to spin down the beads. The supernatants were combined as templates for follow-up qPCR analysis.

GFP-TEAD4 condensates = experiment: siRNA screening based on TEAD4 condensate; type: cell-based; settings: Figure 2B source data; siRNA against the named gene; Z score based analysis
Experimental: siRNA reagents were obtained from the Dharmacon Human ON-TARGETplus siRNA Smartpool Library (Thermo) as described previously (Tang et al, [2020]). […] Lipofectamine RNAiMAX reagent (Thermo) at a volume of 0.05 μl per well was then added to the siRNA-loaded plates. Subsequently, cells expressing GFP-TEAD4 were seeded into the plate at 2000 cells per well. After subsequent transfection for 48 h, the cells were fixed with 4% PFA at room temperature for 30 min. DAPI was used to identify individual nuclei. The plates were kept at 4 °C in the dark before being analyzed using the Opera system. Twenty focus fields per well were scanned and analyzed. Scrambled siRNA was used as an internal reference on each plate.

HGC-27 cells = experiment: siRNA screening based on cell growth; parameters: species or system human; settings: Figure 2B source data; siRNA against the named gene; Z score based analysis
Experimental: For screening based on cell growth, HGC-27 cells (2000 per well) were seeded into a 96-well plate overnight. The individual siRNAs targeting 192 BioID-identified genes were then added into each well to a final concentration of 25 nM. After subsequent incubation for 48 h, the cells were analyzed using an ATP-based CellCounting-Lite^TM 2.0 reagent (Vazyme, Nanjing, China) according to the manufacturer’s instructions. The intracellular ATP contents were measured using an EnSight™ Multimode Microplate Reader (Perkin Elmer).

[3] = tested on: GFP-TEAD4 condensates in HEK293FT cells; experiment: GFP-TEAD4 condensate imaging, condensed fraction in cells; type: cell-based; settings: Figure 2D source data, GFP-TEAD4 condensates with co-expressed cofactor, with or without 1,6-Hex, single measurement
[4] = tested on: HEK293FT cells transfected with TF library; experiment: Screening of TF condensates based on fluorescent puncta; type: cell-based; settings: Figure 1B numerical data; TF library screen, one value per transcriptional factor
Experimental: TF plasmids were automatically added to black-walled 384-well plates at 80 ng per well to reach a final concentration of 1.6 μg/ml. Polyethylenimine (PEI, Sigma) was then added to the plasmid-loaded plates at 240 ng per well (4.8 μg/ml). Subsequently, HEK293FT cells were seeded into the plate at 2000 cells per well. After 60 h, cells were cultured in medium with or without glucose for 12 h, and then fixed with 4% paraformaldehyde (PFA) at room temperature for 30 min. After three washes with PBS, fixed cells were permeabilized with 0.05% Triton X-100 for 15 min. Thereafter, cells were blocked with 5% BSA for 1 h, and then incubated overnight with anti-Flag (Sigma F3165, 1:200) and anti-GAL4 (Abbkine ABP57232, 1:200) primary antibodies at 4 °C. The cells were then gently washed with PBS, followed by being incubated with Alexa Fluor Plus 488 goat anti-mouse IgG secondary antibody (Thermo A32723, 1:400) or Alexa Fluor Plus 488 goat anti-rabbit IgG secondary antibody (Thermo A32731, 1:400) for 1 h. The plates were kept at 4 °C in the dark before being analyzed using an Opera System (Perkin Elmer). Fifty random fields per well were scanned and analyzed using the Columbus Plus Image Data Storage and Analysis System (Perkin Elmer).

| Compound | Z score of condensed fraction [4] | other results |
| --- | --- | --- |
| OCCCCCCO [1,6-Hex, 1,6-hexanediol] |  | Effect on GLUP-induced CTGF downregulation (CTGF mRNA; GLUP-treated cells with or without 1,6-Hex, mRNA): obviously abrogated GLUP-induced downregulation of CTGF; CTGF mRNA level (CTGF mRNA; VGLL4-overexpressing HEK293FT cells + 1,6-Hex 0.25% v/v, three biological replicates): 1.31 and 0.86 and 1.18; 3C interaction promoter-enhance1 (MYC locus) [1]: 0.8 and 0.75 and 0.85; 3C interaction promoter-enhance 4 (MYC locus) [1]: 0.8 and 0.65 and 0.74; ChIP-qPCR enrichment of CTCF on CTGF promoter [2]: 0.0726 and 0.0717 and 0.0639; ChIP-qPCR enrichment of H3K27ac on CTGF promoter [2]: 0.0982 and 0.0959 and 0.0952; ChIP-qPCR enrichment of RNA Pol II on CTGF promoter [2]: 0.1941 and 0.1778 and 0.182 |
| RCOR3 |  | Z score of condensed fraction (GFP-TEAD4 condensates): 1.432; Z score of cell growth (HGC-27 cells): 0.05778 |
| VGLL4: transcriptional cofactor protein with two TDU domains binding TEAD4 |  | Z score of condensed fraction (GFP-TEAD4 condensates): -4.055; Z score of cell growth (HGC-27 cells): 3.062; Condensed fraction ([3]; replicate 1 of 9): 31.2622%; Condensed fraction ([3]; replicate 2 of 9): 58.3357%; Condensed fraction ([3]; replicate 3 of 9): 38.0997%; Condensed fraction ([3]; replicate 4 of 9): 50.0073%; Condensed fraction ([3]; replicate 5 of 9): 50.0033%; Condensed fraction ([3]; replicate 6 of 9): 46.4819%; Condensed fraction ([3]; replicate 7 of 9): 42.8861%; Condensed fraction ([3]; replicate 8 of 9): 42.8738%; Condensed fraction ([3]; replicate 9 of 9): 35.7201% |
| ZNF517 | -0.6071 |  |
| ZNF529 | -0.8409 |  |
| ZNF530 | -0.1863 |  |
| ZNF540 | -0.9698 |  |
| ZNF548 | 1.7562 |  |
| ZNF549 | 2.12 |  |
| ZNF556 | -0.2629 |  |
| ZNF562 | 1.118 |  |
| ZNF572 | -0.6768 |  |
| ZNF587 | 0.9024 |  |
| ZNF596 | -0.5741 |  |
| ZNF621 | -0.6157 |  |
| ZNF626 | 2.964 |  |

| Compound | Z score of condensed fraction [4] | other results |
| --- | --- | --- |
| ZNF643 | 2.053 |  |
| ZNF670 | 2.5783 |  |
| ZNF677 | -0.6787 |  |
| ZNF679 | -1.052 |  |
| ZNF680 | -0.6442 |  |
| ZNF689 | -0.54 |  |
| ZNF695 | -0.08978 |  |
| ZNF707 | 0.9339 |  |
| ZNF747 | 1.603 |  |
| ZNF768 | -0.6686 |  |
| ZNF785 | -0.4418 |  |
| ZNF829 | 0.6314 |  |
| ZSCAN2 | -0.2191 |  |
| ZSCAN22 | -0.5621 |  |
| ZSCAN23 | 0.2133 |  |
